Test results taken from US20060069132A1, “Azolecarboxamide herbicides” (priority 2004, published 2006).

What was measured:
barnyardgrass [1] = experiment: Test B pre-/postemergence herbicide test; type: in vivo, Echinochloa crus-galli; conditions: for Plant response rating (0 to 100 scale), Barnyardgrass: 0 is no effect, preemergence
How it was run: (§1)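 Seeds were planted and treated preemergence with compounds formulated in a non-phytotoxic solvent mixture containing surfactant, while plants at the 1- to 4-leaf stage (2 to 18 cm) received postemergence sprays. Flooded paddy plants were grown to the 2-leaf stage. After 13 to 15 days in a greenhouse, injury was visually rated 0–100 against untreated controls.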

Surinam grass = experiment: Test B pre-/postemergence herbicide test; type: in vivo, Urochloa decumbens; conditions: for Plant response rating (0 to 100 scale), Surinam Grass: 0 is no effect, 100 is complete control, preemergence
How it was run: (§2)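 Pre: seeds sown, then sprayed. Post: 1–4-leaf plants (2–18 cm) sprayed at the same time. Paddy: flooded, treated at 2-leaf stage. Formulation: non-phytotoxic solvent with surfactant. Greenhouse 13–15 days; visual 0–100 score relative to controls.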

cocklebur = experiment: Test B pre-/postemergence herbicide test; type: in vivo, Xanthium strumarium; conditions: for Plant response rating (0 to 100 scale), Cocklebur: 0 is no effect, preemergence
How it was run: as §1

corn = experiment: Test B pre-/postemergence herbicide test; type: in vivo, Zea mays; conditions: for Plant response rating (0 to 100 scale), Corn: 0 is no effect, preemergence
How it was run: as §2

large crabgrass = experiment: Test B pre-/postemergence herbicide test; type: in vivo, Digitaria sanguinalis; conditions: for Plant response rating (0 to 100 scale), Crabgrass, Large: 0 is no effect, preemergence
How it was run: as §2

giant foxtail = experiment: Test B pre-/postemergence herbicide test; type: in vivo, Setaria faberi; conditions: for Plant response rating (0 to 100 scale), Foxtail, Giant: 0 is no effect, preemergence
How it was run: as §2

lambsquarters = experiment: Test B pre-/postemergence herbicide test; type: in vivo, Chenopodium album
How it was run: as §2

morningglory = experiment: Test B pre-/postemergence herbicide test; type: in vivo, Ipomoea coccinea; conditions: for Plant response rating (0 to 100 scale), Morningglory: 0 is no effect, 100 is complete control, preemergence
How it was run: as §1

pigweed = experiment: Test B pre-/postemergence herbicide test; type: in vivo, Amaranthus retroflexus; conditions: for Plant response rating (0 to 100 scale), Pigweed: 0 is no effect, 100 is complete control, preemergence
How it was run: as §2

velvetleaf = experiment: Test B pre-/postemergence herbicide test; type: in vivo, Abutilon theophrasti; conditions: for Plant response rating (0 to 100 scale), Velvetleaf: 0 is no effect, 100 is complete control, preemergence
How it was run: as §2

blackgrass = experiment: Test B postemergence herbicide test; type: in vivo, Alopecurus myosuroides
How it was run: (§3)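 Postemergence plants were sprayed with formulated test chemicals at 2 to 18 cm height (1- to 4-leaf stage); paddy species were grown to the 2-leaf stage. After 13 to 15 days in a greenhouse, injury was rated visually against untreated controls on a 0–100 scale (0 = no effect, 100 = complete control).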

wheat = experiment: Test B postemergence herbicide test; type: in vivo, Triticum aestivum; parameters: key to Wheat plant response rating: 0 = no effect, 100 = complete control
How it was run: (§4)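 Read-out: visual comparison with controls, scored 0 to 100, where 100 means complete control and 0 no effect. Formulated chemicals were applied postemergence to plants 2–18 cm tall (1- to 4-leaf), or to flooded-paddy plants at the 2-leaf stage, then held 13 to 15 days under glass.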

wild oat = experiment: Test B postemergence herbicide test; type: in vivo, Avena fatua
How it was run: as §4

rice = experiment: Test B flooded paddy test; type: in vivo, Oryza sativa; conditions: scale 0 to 100 (0 no effect, 100 complete control)
How it was run: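 Plants grow to 1- to 4-leaf stage (2–18 cm) for postemergence spraying, or to 2-leaf stage for the paddy test. Formulated compound is applied. Greenhouse holding lasts 13–15 days. Response is scored visually relative to controls, 0 no effect to 100 complete control; a dash means no result.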

[2] = test system: small flower umbrella sedge; experiment: Test B flooded paddy test; type: in vivo, Cyperus difformis; conditions: scale 0 to 100 (0 no effect, 100 complete control)
How it was run: as §3

ducksalad = experiment: Test B flooded paddy test; type: in vivo, Heteranthera limosa; conditions: scale 0 to 100 (0 no effect, 100 complete control)
How it was run: as §3

barnyardgrass [3] = experiment: Test B flooded paddy test; type: in vivo, Echinochloa crus-galli; conditions: scale 0 to 100 (0 no effect, 100 complete control)
How it was run: as §3

[4] = Postemergence, 500 g ai/ha, scale 0 (no effect) to 100 (complete control)
[5] = postemergence, 125 g ai/ha, scale 0 to 100
[6] = 500 g ai/ha, scale 0 to 100, 0 no effect, 100 complete control, preemergence
[7] = 125 g ai/ha, 100 is complete control
[8] = 125 g ai/ha, visual rating, scale 0 (no effect) to 100 (complete control), postemergence
[9] = postemergence, 500 g ai/ha, scale 0 to 100, 0 is no effect, 100 is complete control

Cc1nn(C(C)(C)C)nc1C(=O)Nc1cccc(C(=O)N2CC=CC2)n1 [Compound 441]
Barnyardgrass plant response rating (barnyardgrass [1]; Postemergence, 125 g ai/ha, scale 0 (no effect) to 100 (complete control)): 0
Barnyardgrass plant response rating (barnyardgrass [1]; [4]): 0
Surinam Grass plant response rating (Surinam grass; [4]): 0
Surinam Grass plant response rating (Surinam grass; [5]): 0
Cocklebur plant response rating (cocklebur; [4]): 10
Cocklebur plant response rating (cocklebur; [5]): 10
Corn plant response rating (corn; [4]): 30
Corn plant response rating (corn; [5]): 0
Crabgrass, Large plant response rating (large crabgrass; [4]): 0
Crabgrass, Large plant response rating (large crabgrass; [5]): 0
Foxtail, Giant plant response rating (giant foxtail; [4]): 0
Foxtail, Giant plant response rating (giant foxtail; [5]): 0
Lambsquarters plant response rating (lambsquarters; [4]): 20
Lambsquarters plant response rating (lambsquarters; [5]): 20
Morningglory plant response rating (morningglory; [4]): 0
Morningglory plant response rating (morningglory; [5]): 0
Pigweed plant response rating (pigweed; [4]): 20
Pigweed plant response rating (pigweed; [5]): 20
Velvetleaf plant response rating (velvetleaf; [4]): 0
Velvetleaf plant response rating (velvetleaf; [5]): 0
Blackgrass plant response rating (blackgrass; [4]): 40
Blackgrass plant response rating (blackgrass; [5]): 20
Wheat plant response rating (wheat; [6]): 30
Wheat plant response rating (wheat; [4]): 30
Wheat plant response rating (wheat; [5]): 20
Oat, Wild plant response rating (wild oat; [4]): 40
Oat, Wild plant response rating (wild oat; [5]): 30
Rice plant response rating (rice; 125 g ai/ha): 0
Sedge, Umbrella plant response rating ([2]; 125 g ai/ha): 0
Ducksalad plant response rating (ducksalad; 125 g ai/ha): 0
Barnyardgrass plant response rating (barnyardgrass [3]; 125 g ai/ha): 0

CCc1nn(C(C)(C)C)nc1C(=O)Nc1cccc(C(=O)N(C)C)c1 [Compound 364]
Plant response rating (0 to 100 scale), Barnyardgrass (barnyardgrass [1]; [7]): 100
Barnyardgrass plant response rating (barnyardgrass [1]; [8]): 10
Barnyardgrass plant response rating (barnyardgrass [1]; [9]): 70
Plant response rating (0 to 100 scale), Surinam Grass (Surinam grass; 125 g ai/ha): 100
Surinam Grass plant response rating (Surinam grass; [8]): 30
Plant response rating (0 to 100 scale), Cocklebur (cocklebur; [7]): 70
Cocklebur plant response rating (cocklebur; [8]): 40
Cocklebur plant response rating (cocklebur; [9]): 50
Plant response rating (0 to 100 scale), Corn (corn; [7]): 80
Corn plant response rating (corn; [8]): 10
Corn plant response rating (corn; [9]): 40
Plant response rating (0 to 100 scale), Crabgrass, Large (large crabgrass; [7]): 100
Crabgrass, Large plant response rating (large crabgrass; [8]): 30
Crabgrass, Large plant response rating (large crabgrass; [9]): 70
Plant response rating (0 to 100 scale), Foxtail, Giant (giant foxtail; [7]): 100
Foxtail, Giant plant response rating (giant foxtail; [8]): 10
Foxtail, Giant plant response rating (giant foxtail; [9]): 50
Plant response rating (0 to 100 scale), Lambsquarters (lambsquarters; 125 g ai/ha, 0 is no effect, 100 is complete control, preemergence): 100
Lambsquarters plant response rating (lambsquarters; [8]): 70
Plant response rating (0 to 100 scale), Morningglory (morningglory; 125 g ai/ha): 70
Morningglory plant response rating (morningglory; [8]): 20
Plant response rating (0 to 100 scale), Pigweed (pigweed; 125 g ai/ha): 100
Pigweed plant response rating (pigweed; [8]): 40
Plant response rating (0 to 100 scale), Velvetleaf (velvetleaf; 125 g ai/ha): 100
Velvetleaf plant response rating (velvetleaf; [8]): 20
Blackgrass plant response rating (blackgrass; [8]): 30
Blackgrass plant response rating (blackgrass; [9]): 80
Wheat plant response rating (wheat; [8]): 10
Wheat plant response rating (wheat; [6]): 100
Oat, Wild plant response rating (wild oat; [8]): 20
Rice plant response rating (rice; 1000 g ai/ha): 90
Sedge, Umbrella plant response rating ([2]; 1000 g ai/ha): 100
Ducksalad plant response rating (ducksalad; 1000 g ai/ha): 100
Barnyardgrass plant response rating (barnyardgrass [3]; 1000 g ai/ha): 90

CCOC(=O)c1cccc(NC(=O)c2nn(C(C)C)nc2C)c1 [Compound 397]
Plant response rating (0 to 100 scale), Barnyardgrass (barnyardgrass [1]; [7]): 0
Barnyardgrass plant response rating (barnyardgrass [1]; [8]): 0
Barnyardgrass plant response rating (barnyardgrass [1]; [4]): 0
Plant response rating (0 to 100 scale), Surinam Grass (Surinam grass; 125 g ai/ha): 0
Surinam Grass plant response rating (Surinam grass; [8]): 10
Surinam Grass plant response rating (Surinam grass; [4]): 10
Plant response rating (0 to 100 scale), Cocklebur (cocklebur; [7]): 0
Cocklebur plant response rating (cocklebur; [8]): 0
Cocklebur plant response rating (cocklebur; [4]): 0
Plant response rating (0 to 100 scale), Corn (corn; [7]): 0
Corn plant response rating (corn; [8]): 0
Corn plant response rating (corn; [4]): 10
Plant response rating (0 to 100 scale), Crabgrass, Large (large crabgrass; [7]): 0
Crabgrass, Large plant response rating (large crabgrass; [8]): 0
Crabgrass, Large plant response rating (large crabgrass; [4]): 10
Plant response rating (0 to 100 scale), Foxtail, Giant (giant foxtail; [7]): 0
Foxtail, Giant plant response rating (giant foxtail; [8]): 10
Foxtail, Giant plant response rating (giant foxtail; [4]): 40
Lambsquarters plant response rating (lambsquarters; [8]): 0
Lambsquarters plant response rating (lambsquarters; [4]): 0
Plant response rating (0 to 100 scale), Morningglory (morningglory; 125 g ai/ha): 0
Morningglory plant response rating (morningglory; [8]): 0
Morningglory plant response rating (morningglory; [4]): 10
Plant response rating (0 to 100 scale), Pigweed (pigweed; 125 g ai/ha): 0
Pigweed plant response rating (pigweed; [8]): 0
Pigweed plant response rating (pigweed; [4]): 0
Plant response rating (0 to 100 scale), Velvetleaf (velvetleaf; 125 g ai/ha): 0
Velvetleaf plant response rating (velvetleaf; [8]): 10
Velvetleaf plant response rating (velvetleaf; [4]): 50
Blackgrass plant response rating (blackgrass; [8]): 0
Blackgrass plant response rating (blackgrass; [4]): 0
Wheat plant response rating (wheat; [8]): 0
Wheat plant response rating (wheat; [6]): 0
Wheat plant response rating (wheat; [4]): 10
Oat, Wild plant response rating (wild oat; [8]): 0
Oat, Wild plant response rating (wild oat; [4]): 0
Rice plant response rating (rice; 1000 g ai/ha): 10
Sedge, Umbrella plant response rating ([2]; 1000 g ai/ha): 70
Ducksalad plant response rating (ducksalad; 1000 g ai/ha): 0
Barnyardgrass plant response rating (barnyardgrass [3]; 1000 g ai/ha): 0
